Measured values reported in PMC7413254 (Nature Communications, 2020).
Like-named read-outs stand apart in the source and are kept apart here.

Tests used:
PfCRT [1] = assay: Influx of VF-6 via PfCRT into the oocyte, solutes tested as potential co-substrates; type: cell-based, Plasmodium falciparum; set-up: key: X: Compounds that have been tested as potential co-substrates but are not required for influx of VF-6 via PfCRT into the oocyte; conditions: X marks the solute
PfCRT^3D7 [2] = target: T1, PfCRT^3D7 (Plasmodium falciparum, UniProt Q8IBZ9); assay: cell-based; type: cell-based; conditions: total [3H]CQ transport; for inhibition at 500 µM: [test solute] = 0.5 mM; for inhibition at 1000 µM: [test solute] = 1 mM; for inhibition at 2000 µM: [test solute] = 2 mM
T1 sequence (Q8IBZ9 59-398): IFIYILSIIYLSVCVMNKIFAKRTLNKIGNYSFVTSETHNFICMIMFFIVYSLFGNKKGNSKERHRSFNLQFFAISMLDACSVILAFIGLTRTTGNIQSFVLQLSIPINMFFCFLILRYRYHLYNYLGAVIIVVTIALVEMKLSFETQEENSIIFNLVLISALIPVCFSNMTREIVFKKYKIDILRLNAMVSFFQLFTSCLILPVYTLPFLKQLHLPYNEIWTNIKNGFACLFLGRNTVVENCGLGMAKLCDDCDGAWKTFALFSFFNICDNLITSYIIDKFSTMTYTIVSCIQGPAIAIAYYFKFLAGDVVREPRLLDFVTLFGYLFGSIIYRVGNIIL
Method in brief: (§1)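 PfCRT-expressing and control oocytes: ND96 pH 5.5 → 1.5 h at 27.5 °C → ice-cold ND96 wash → 10% SDS lysis → scintillation count.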

PfCRT [3] = assay: Test of solutes as potential co-substrates for influx of VF-6 via PfCRT into the oocyte; type: cell-based, Plasmodium falciparum; set-up: key: X: Compounds that have been tested as potential co-substrates but are not required for influx of VF-6 via PfCRT into the oocyte; conditions: X = tested
PfCRT^Dd2 [4] = target: T2, PfCRT^Dd2 (Plasmodium falciparum, UniProt Q9N623, A220S/I356T/K76T/M74I/N326S/N75E/Q271E/R371I); assay: cell-based; type: cell-based; conditions: […]; for activity at 45000 µM: [test solute]i = 45 mM (30 mM for some solutes due to solubility)
T2 sequence (Q9N623 whole entry A220S/I356T/K76T/M74I/N326S/N75E/Q271E/R371I): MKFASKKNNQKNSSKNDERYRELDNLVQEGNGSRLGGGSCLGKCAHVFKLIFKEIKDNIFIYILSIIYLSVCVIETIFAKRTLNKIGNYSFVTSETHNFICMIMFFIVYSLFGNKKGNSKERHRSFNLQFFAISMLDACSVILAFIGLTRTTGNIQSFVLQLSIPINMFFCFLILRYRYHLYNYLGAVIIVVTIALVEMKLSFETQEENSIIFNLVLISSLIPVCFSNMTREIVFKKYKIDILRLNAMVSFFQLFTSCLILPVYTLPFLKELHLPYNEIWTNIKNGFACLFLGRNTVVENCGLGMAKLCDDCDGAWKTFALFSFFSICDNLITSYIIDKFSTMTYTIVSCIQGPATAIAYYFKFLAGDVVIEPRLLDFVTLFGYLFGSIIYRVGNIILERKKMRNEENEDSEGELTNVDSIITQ
Method in brief: (§2)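 Transport measured in Xenopus oocytes expressing the transporters, 1.5 h at 27.5 °C in ND96 pH 5.5 unless noted. For trans-stimulation, VF-6 injected in 25 nL ND96 at pH 5.0–7.0 or Na^+-free (choline) buffer; intracellular levels based on ~400 nL oocyte volume. Ten oocytes per treatment, ≥4 experiments.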

PfCRT^Ecu1110 [5] = target: T3, PfCRT^Ecu1110 (Plasmodium falciparum, UniProt Q9N623, A220S/I356L/K76T/N326D); assay: cell-based; type: cell-based; conditions: […]
T3 sequence (Q9N623 whole entry A220S/I356L/K76T/N326D): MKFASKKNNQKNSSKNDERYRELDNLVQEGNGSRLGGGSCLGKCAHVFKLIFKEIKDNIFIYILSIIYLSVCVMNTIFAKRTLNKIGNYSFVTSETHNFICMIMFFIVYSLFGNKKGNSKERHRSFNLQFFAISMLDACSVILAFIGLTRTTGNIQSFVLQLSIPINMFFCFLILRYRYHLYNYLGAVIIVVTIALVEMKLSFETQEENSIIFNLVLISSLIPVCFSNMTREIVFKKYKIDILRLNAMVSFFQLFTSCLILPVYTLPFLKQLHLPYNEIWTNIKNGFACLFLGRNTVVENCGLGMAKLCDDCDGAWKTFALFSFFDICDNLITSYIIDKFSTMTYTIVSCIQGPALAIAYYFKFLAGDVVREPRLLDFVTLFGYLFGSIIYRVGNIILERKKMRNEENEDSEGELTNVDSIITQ
Method in brief: as §2

PfCRT^3D7 [6] = target: T1, PfCRT^3D7; assay: cell-based; type: cell-based
Method in brief: as §2

PfNT1 = target: T4, PfNT1 (Plasmodium falciparum, UniProt Q8IDM6); assay: cell-based; type: cell-based; conditions: for activity at 5000 µM: total [3H]CQ transport
T4 construct: expressed in transfected cells; host or cells: Xenopus laevis oocytes (stage V-VI), cRNA-injected
T4 sequence (Q8IDM6 whole entry): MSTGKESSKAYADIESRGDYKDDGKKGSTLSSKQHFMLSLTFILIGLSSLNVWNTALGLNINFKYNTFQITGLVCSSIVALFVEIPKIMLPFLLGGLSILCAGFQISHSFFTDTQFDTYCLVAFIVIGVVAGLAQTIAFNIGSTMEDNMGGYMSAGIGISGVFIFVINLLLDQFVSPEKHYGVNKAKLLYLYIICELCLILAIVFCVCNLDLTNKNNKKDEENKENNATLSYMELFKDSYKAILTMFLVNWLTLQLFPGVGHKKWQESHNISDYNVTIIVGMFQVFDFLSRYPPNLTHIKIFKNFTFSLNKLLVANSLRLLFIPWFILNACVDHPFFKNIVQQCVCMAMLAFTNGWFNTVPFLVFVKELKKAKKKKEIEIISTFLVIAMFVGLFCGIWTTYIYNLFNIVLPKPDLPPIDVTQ
Method in brief: as §2

PfCRT^Dd2 [7] = target: T2, PfCRT^Dd2; assay: [3H]CQ uptake into Xenopus oocytes, cis-inhibition by unlabelled solute; type: cell-based
Method in brief: as §1

PfCRT^Ecu1110 [8] = target: T3, PfCRT^Ecu1110; assay: as above; type: cell-based
Method in brief: as §1

non-expressing oocytes [9] = assay: cells; type: cell-based, Xenopus laevis; conditions: Xenopus laevis, total [3H]CQ transport; for inhibition at 500 µM: [test solute] = 0.5 mM; for inhibition at 1000 µM: [test solute] = 1 mM; for inhibition at 2000 µM: [test solute] = 2 mM
Method in brief: as §1

non-expressing oocytes [10] = type: cell-based, Xenopus laevis; conditions: total [3H]CQ transport; for Uptake of [3H]CQ (% non-expressing oocyte control), trans-stimulation: non-expressing oocytes, normalised to the oocyte type control; for Uptake of [3H]CQ (% PfCRTDd2 control), trans-stimulation, non-expressing oocytes: mean ± SEM, SEM
Method in brief: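 Oocytes (ten per treatment, ≥4 independent frogs/days) were preloaded by injecting VF-6 in 25 nL ND96 at pH 5.0, 5.5, 6.0 or 7.0, or Na^+-free choline buffer, then uptake run 1.5 h, 27.5 °C, ND96 pH 5.5 by default. Internal concentrations assumed ~400 nL oocyte volume.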

[11] = PfCRT3D7 oocytes, normalised to the oocyte type control, read-out: Uptake of [3H]CQ (% PfCRT3D7 control), cis-inhibition
[12] = mean ± SEM, SEM, read-out: Uptake of [3H]CQ (% PfCRTDd2 control), cis-inhibition, PfCRT3D7
[13] = read-out: PfCRT-mediated [3H]CQ transport, cis-inhibition (% PfCRTDd2 control)
[14] = read-out: Uptake of [3H]CQ (% PfCRTDd2 control), cis-inhibition, PfCRTDd2, SEM
[15] = read-out: PfCRT-mediated [3H]CQ transport, cis-inhibition (% PfCRTEcu1110 control)
[16] = read-out: Uptake of [3H]CQ (% PfCRTDd2 control), cis-inhibition, PfCRTEcu1110, SEM
[17] = read-out: Uptake of [3H]CQ (% PfCRTEcu1110 control), cis-inhibition
[18] = read-out: [3H]CQ transport (% PfCRTEcu1110 control), cis-inhibition, PfCRTEcu1110, SEM
[19] = Oocyte, mean ± SEM, SEM, read-out: Uptake of [3H]CQ (% PfCRTDd2 control), cis-inhibition, non-expressing oocytes
[20] = non-expressing oocytes, normalised to the oocyte type control, read-out: Uptake of [3H]CQ (% non-expressing oocyte control), cis-inhibition

C[C@@H](O)[C@H](N)C(=O)O [L-threonine]
Compounds that have been tested as potential co-substrates but are not required for influx of VF-6 via PfCRT into the oocyte (PfCRT [1]): X | inhibition at 500 µM (PfCRT^3D7 [2]; [11]): 100 ± 4.7% | inhibition at 1000 µM (PfCRT^3D7 [2]; [11]): 100 ± 5.3% | inhibition at 2000 µM (PfCRT^3D7 [2]; [11]): 99 ± 5.3% | inhibition at 500 µM (PfCRT^3D7 [2]; [12]): 2.9 ± 0.03% | inhibition at 1000 µM (PfCRT^3D7 [2]; [12]): 2.8 ± 0.07% | inhibition at 2000 µM (PfCRT^3D7 [2]; [12]): 3.3 ± 0.03% | Tested as potential co-substrate but not required for influx of VF-6 via PfCRT into the oocyte (PfCRT [3]): X | activity at 5000 µM (PfCRT^Dd2 [4]; pH 5.5, read-out: PfCRT-mediated [3H]CQ transport, trans-stimulation (% PfCRTDd2 control), [test solute]i = 5 mM (intracellular), PfCRTDd2 oocytes, normalised to oocyte type control): 96 ± 3.2% | activity at 5000 µM (PfCRT^Dd2 [4]; pH 5.5, read-out: Uptake of [3H]CQ (% PfCRTDd2 control), trans-stimulation, PfCRTDd2, total [3H]CQ transport, [test solute]i = 5 mM (intracellular), mean ± SEM, SEM): 98 ± 3.2% | activity at 5000 µM (PfCRT^Dd2 [4]; pH 5.5, read-out: Uptake of [3H]CQ (% PfCRTDd2 control), trans-stimulation, PfCRTDd2 oocytes, [test solute]i = 5 mM, total [3H]CQ transport, normalised to the oocyte type control): 98 ± 3.2% | activity at 45000 µM (PfCRT^Dd2 [4]; pH 5.5, read-out: Uptake of [3H]CQ (% PfCRTDd2 control), trans-stimulation, PfCRTDd2 oocytes, total [3H]CQ transport, normalised to the oocyte type control): 99 ± 3.2% | activity at 5000 µM (PfCRT^Dd2 [4]; pH 5.5, read-out: [3H]CQ transport (% PfCRTDd2 control), trans-stimulation, PfCRTDd2, trans-stimulation, [test solute]i = 5 mM (injected), PfCRT-mediated component (background subtracted), mean ± SEM, SEM): 96 ± 3.2% | activity at 45000 µM (PfCRT^Dd2 [4]; pH 5.5, read-out: [3H]CQ transport (% PfCRTDd2 control), trans-stimulation, PfCRTDd2, trans-stimulation, PfCRT-mediated component (background subtracted), mean ± SEM, SEM): 97 ± 3.9% | activity at 5000 µM (PfCRT^Ecu1110 [5]; pH 5.5, read-out: PfCRT-mediated [3H]CQ transport, trans-stimulation (% PfCRTEcu1110 control), [test solute]i = 5 mM (intracellular), PfCRTEcu1110 oocytes, normalised to oocyte type control): 99 ± 3.4% | activity at 5000 µM (PfCRT^Ecu1110 [5]; pH 5.5, read-out: Uptake of [3H]CQ (% PfCRTEcu1110 control), trans-stimulation, PfCRTEcu1110 oocytes, [test solute]i = 5 mM, total [3H]CQ transport, normalised to the oocyte type control): 101 ± 2.5% | activity at 45000 µM (PfCRT^Ecu1110 [5]; pH 5.5, read-out: Uptake of [3H]CQ (% PfCRTEcu1110 control), trans-stimulation, PfCRTEcu1110 oocytes, [test solute]i = 45 mM (30 mM for some solutes due to solubility), total [3H]CQ transport, normalised to the oocyte type control): 99 ± 2% | activity at 5000 µM (PfCRT^Ecu1110 [5]; read-out: Uptake of [3H]CQ (% PfCRTDd2 control), trans-stimulation, PfCRTEcu1110, total [3H]CQ transport, [test solute]i = 5 mM (intracellular), mean ± SEM, SEM): 36 ± 1.9% | activity at 45000 µM (PfCRT^Ecu1110 [5]; read-out: Uptake of [3H]CQ (% PfCRTDd2 control), trans-stimulation, PfCRTEcu1110, total [3H]CQ transport, [test solute]i = 45 mM (intracellular; 30 mM for some solutes due to solubility), mean ± SEM, SEM): 35 ± 1.3% | activity at 5000 µM (PfCRT^3D7 [6]; PfCRT3D7 oocytes, [test solute]i = 5 mM, total [3H]CQ transport, normalised to the oocyte type control, read-out: Uptake of [3H]CQ (% PfCRT3D7 control), trans-stimulation): 99 ± 4.2% | [3H]CQ transport (% PfCRT3D7 control), trans-stimulation, PfCRT3D7 (PfCRT^3D7 [6]; SEM): 0.3 ± 0.01 % PfCRT3D7 control | activity at 5000 µM (PfCRT^3D7 [6]; [test solute]i = 5 mM (intracellular), PfCRT3D7 oocytes, normalised to oocyte type control, read-out: PfCRT-mediated [3H]CQ transport, trans-stimulation (% PfCRT3D7 control)): 97 ± 2.9% | activity at 45000 µM (PfCRT^3D7 [6]; SEM, read-out: Uptake of [3H]CQ (% PfCRTDd2 control), trans-stimulation, PfCRT3D7): 3.3 ± 0.02% | activity at 45000 µM (PfCRT^3D7 [6]; read-out: PfCRT-mediated [3H]CQ transport, trans-stimulation (% PfCRT3D7 control)): 96 ± 3.1% | activity at 45000 µM (PfCRT^3D7 [6]; read-out: Uptake of [3H]CQ (% PfCRT3D7 control), trans-stimulation): 98 ± 2.8% | activity at 5000 µM (PfCRT^3D7 [6]; total [3H]CQ transport, [test solute]i = 5 mM (intracellular), mean ± SEM, SEM, read-out: Uptake of [3H]CQ (% PfCRTDd2 control), trans-stimulation, PfCRT3D7): 3.3 ± 0.1% | activity at 5000 µM (PfNT1; PfNT1 oocytes, [test solute]i = 5 mM, normalised to the oocyte type control, read-out: Uptake of [3H]CQ (% PfNT1 control), trans-stimulation): 99 ± 3.5% | activity at 45000 µM (PfNT1; SEM, read-out: Uptake of [3H]CQ (% PfCRTDd2 control), trans-stimulation, PfNT1): 2.6 ± 0.08% | activity at 45000 µM (PfNT1; read-out: Uptake of [3H]CQ (% PfNT1 control), trans-stimulation): 100 ± 2.6% | activity at 5000 µM (PfNT1; [test solute]i = 5 mM (intracellular), mean ± SEM, SEM, read-out: Uptake of [3H]CQ (% PfCRTDd2 control), trans-stimulation, PfNT1): 2.8 ± 0.05% | inhibition at 500 µM (PfCRT^Dd2 [7]; [13]): 95 ± 3.6% | inhibition at 2000 µM (PfCRT^Dd2 [7]; [13]): 92 ± 5.6% | inhibition at 500 µM (PfCRT^Dd2 [7]; [14]): 97 ± 2.5% | inhibition at 1000 µM (PfCRT^Dd2 [7]; [14]): 96 ± 3.6% | inhibition at 2000 µM (PfCRT^Dd2 [7]; [14]): 94 ± 3.2% | inhibition at 500 µM (PfCRT^Ecu1110 [8]; [15]): 94 ± 1.1% | inhibition at 1000 µM (PfCRT^Ecu1110 [8]; [15]): 95 ± 1.3% | inhibition at 2000 µM (PfCRT^Ecu1110 [8]; [15]): 94 ± 3.7% | inhibition at 500 µM (PfCRT^Ecu1110 [8]; [16]): 31 ± 1.1% | inhibition at 1000 µM (PfCRT^Ecu1110 [8]; [16]): 32 ± 1.9% | inhibition at 2000 µM (PfCRT^Ecu1110 [8]; [16]): 31 ± 1.3% | inhibition at 500 µM (PfCRT^Ecu1110 [8]; [17]): 96 ± 3.1% | inhibition at 1000 µM (PfCRT^Ecu1110 [8]; [17]): 98 ± 2.4% | inhibition at 2000 µM (PfCRT^Ecu1110 [8]; [17]): 96 ± 2.2% | inhibition at 500 µM (PfCRT^Ecu1110 [8]; [18]): 28 ± 0.6% | inhibition at 1000 µM (PfCRT^Ecu1110 [8]; [18]): 29 ± 0.8% | inhibition at 2000 µM (PfCRT^Ecu1110 [8]; [18]): 28 ± 1.5% | inhibition at 500 µM (non-expressing oocytes [9]; [19]): 2.2 ± 0.04% | inhibition at 1000 µM (non-expressing oocytes [9]; [19]): 3.8 ± 0.08% | inhibition at 2000 µM (non-expressing oocytes [9]; [19]): 2.8 ± 0.02% | inhibition at 500 µM (non-expressing oocytes [9]; [20]): 95 ± 5.4% | inhibition at 1000 µM (non-expressing oocytes [9]; [20]): 98 ± 3.6% | inhibition at 2000 µM (non-expressing oocytes [9]; [20]): 100 ± 3.6% | Uptake of [3H]CQ (% non-expressing oocyte control), trans-stimulation (non-expressing oocytes [10]; [test solute]i = 5 mM): 101 ± 3.2 % non-expressing oocyte control | Uptake of [3H]CQ (% non-expressing oocyte control), trans-stimulation (non-expressing oocytes [10]; [test solute]i = 45 mM (30 mM for some solutes due to solubility)): 99 ± 2.4 % non-expressing oocyte control | Uptake of [3H]CQ (% PfCRTDd2 control), trans-stimulation, non-expressing oocytes (non-expressing oocytes [10]; [test solute]i = 5 mM (intracellular)): 2.4 ± 0.08 % PfCRTDd2 control | Uptake of [3H]CQ (% PfCRTDd2 control), trans-stimulation, non-expressing oocytes (non-expressing oocytes [10]; [test solute]i = 45 mM (intracellular; 30 mM for some solutes due to solubility)): 2.8 ± 0.02 % PfCRTDd2 control
